From ChEMBL document CHEMBL4346705, “(±)-trans-Dihydronarciclasine and (±)-trans-dihydrolycoricidine analogues modified in their ring A: Evaluation of their anticancer activity and a SAR study” (2019)

Assays:
Assay type in all cases: functional
[1] = test system: M14; test: Antiproliferative activity against human M14 cells assessed as cell viability at 10^-5 M incubated for 48 hrs by sulforhodamine B assay relative to control; conditions: M14, 48 h, read-out: Activity
[2] = test system: COLO 205; test: Antiproliferative activity against human COLO205 cells assessed as cell viability at 10^-5 M incubated for 48 hrs by sulforhodamine B assay relative to control; conditions: COLO 205, 48 h, read-out: Activity
[3] = test system: DU-145; test: Antiproliferative activity against human DU145 cells assessed as cell viability at 10^-5 M incubated for 48 hrs by sulforhodamine B assay relative to control; conditions: DU-145, 48 h, read-out: Activity
[4] = test system: NCI/ADR-RES; test: Antiproliferative activity against human NCI-ADR-RES cells assessed as cell viability at 10^-5 M incubated for 48 hrs by sulforhodamine B assay relative to control; conditions: read-out: Activity
[5] = test system: BT-549; test: Antiproliferative activity against human BT549 cells assessed as cell viability at 10^-5 M incubated for 48 hrs by sulforhodamine B assay relative to control; conditions: BT-549, 48 h, read-out: Activity
[6] = test system: UACC-62; test: Antiproliferative activity against human UACC62 cells assessed as cell viability at 10^-5 M incubated for 48 hrs by sulforhodamine B assay relative to control; conditions: UACC-62, 48 h, read-out: Activity
[7] = test system: HL-60(TB); test: Antiproliferative activity against human HL-60(TB) cells assessed as cell viability at 10^-5 M incubated for 48 hrs by sulforhodamine B assay relative to control; conditions: HL-60, 48 h, read-out: Activity
[8] = test system: MDA-MB-468; test: Antiproliferative activity against human MDA-MB-468 cells assessed as cell viability at 10^-5 M incubated for 48 hrs by sulforhodamine B assay relative to control; conditions: MDA-MB-468, 48 h, read-out: Activity
[9] = test system: HCT-15; test: Antiproliferative activity against human HCT15 cells assessed as cell viability at 10^-5 M incubated for 48 hrs by sulforhodamine B assay relative to control; conditions: HCT-15, 48 h, read-out: Activity
[10] = test system: KM12; test: Antiproliferative activity against human KM12 cells assessed as cell viability at 10^-5 M incubated for 48 hrs by sulforhodamine B assay relative to control; conditions: KM12, 48 h, read-out: Activity
[11] = test system: HOP-62; test: Antiproliferative activity against human HOP62 cells assessed as cell viability at 10^-5 M incubated for 48 hrs by sulforhodamine B assay relative to control; conditions: HOP-62, 48 h, read-out: Activity
[12] = test system: OVCAR-3; test: Antiproliferative activity against human OVCAR3 cells assessed as cell viability at 10^-5 M incubated for 48 hrs by sulforhodamine B assay relative to control; conditions: OVCAR-3, 48 h, read-out: Activity
[13] = test system: PC-3; test: Antiproliferative activity against human PC3 cells assessed as cell viability at 10^-5 M incubated for 48 hrs by sulforhodamine B assay relative to control; conditions: PC-3, 48 h, read-out: Activity
[14] = test system: SK-MEL-28; test: Antiproliferative activity against human SK-MEL-28 cells assessed as cell viability at 10^-5 M incubated for 48 hrs by sulforhodamine B assay relative to control; conditions: SK-MEL-28, 48 h, read-out: Activity
[15] = test system: MOLT-4; test: Antiproliferative activity against human MOLT4 cells assessed as cell viability at 10^-5 M incubated for 48 hrs by sulforhodamine B assay relative to control; conditions: MOLT-4, 48 h, read-out: Activity
[16] = test system: MDA-MB-435; test: Antiproliferative activity against human MDA-MB-435 cells assessed as cell viability at 10^-5 M incubated for 48 hrs by sulforhodamine B assay relative to control; conditions: MDA-MB-435, 48 h, read-out: Activity
[17] = test system: A498; test: Antiproliferative activity against human A498 cells assessed as cell viability at 10^-5 M incubated for 48 hrs by sulforhodamine B assay relative to control; conditions: A498, 48 h, read-out: Activity
[18] = test system: SW-620; test: Antiproliferative activity against human SW620 cells assessed as cell viability at 10^-5 M incubated for 48 hrs by sulforhodamine B assay relative to control; conditions: SW-620, 48 h, read-out: Activity
[19] = test system: Malme-3M; test: Antiproliferative activity against human MALME-3M cells assessed as cell viability at 10^-5 M incubated for 48 hrs by sulforhodamine B assay relative to control; conditions: read-out: Activity
[20] = test system: OVCAR-5; test: Antiproliferative activity against human OVCAR5 cells assessed as cell viability at 10^-5 M incubated for 48 hrs by sulforhodamine B assay relative to control; conditions: OVCAR-5, 48 h, read-out: Activity
[21] = test system: NCI-H460; test: Antiproliferative activity against human NCI-H460 cells assessed as cell viability at 10^-5 M incubated for 48 hrs by sulforhodamine B assay relative to control; conditions: NCI-H460, 48 h, read-out: Activity
[22] = test system: SK-OV-3; test: Antiproliferative activity against human SKOV3 cells assessed as cell viability at 10^-5 M incubated for 48 hrs by sulforhodamine B assay relative to control; conditions: SK-OV-3, 48 h, read-out: Activity
[23] = test system: HCC 2998; test: Antiproliferative activity against human HCC2998 cells assessed as cell viability at 10^-5 M incubated for 48 hrs by sulforhodamine B assay relative to control; conditions: HCC 2998, 48 h, read-out: Activity
[24] = test system: SNB-19; test: Antiproliferative activity against human SNB19 cells assessed as cell viability at 10^-5 M incubated for 48 hrs by sulforhodamine B assay relative to control; conditions: SNB-19, 48 h, read-out: Activity
[25] = test system: SNB-75; test: Antiproliferative activity against human SNB75 cells assessed as cell viability at 10^-5 M incubated for 48 hrs by sulforhodamine B assay relative to control; conditions: SNB-75, 48 h, read-out: Activity
[26] = test system: SF-268; test: Antiproliferative activity against human SF268 cells assessed as cell viability at 10^-5 M incubated for 48 hrs by sulforhodamine B assay relative to control; conditions: SF-268, 48 h, read-out: Activity
[27] = test system: A549; test: Antiproliferative activity against human A549 cells assessed as cell viability at 10^-5 M incubated for 48 hrs by sulforhodamine B assay relative to control; conditions: A549, 48 h, read-out: Activity
[28] = test system: RXF 393; test: Antiproliferative activity against human RXF393 cells assessed as cell viability at 10^-5 M incubated for 48 hrs by sulforhodamine B assay relative to control; conditions: RXF 393, 48 h, read-out: Activity

COc1cc2c(c(OC)c1OC)C(=O)NC1C2CC(O)C(O)C1O (racemic)
viability at 10 µM [1]: 98.5%
viability at 10 µM [2]: 108%
viability at 10 µM [3]: 110%
viability at 10 µM [4]: 108%
viability at 10 µM [5]: 110%
viability at 10 µM [6]: 94.1%
viability at 10 µM [7]: 99.3%
viability at 10 µM [8]: 102%
viability at 10 µM [9]: 104%
viability at 10 µM [10]: 108%
viability at 10 µM [11]: 102%
viability at 10 µM [12]: 112%
viability at 10 µM [13]: 96.5%
viability at 10 µM [14]: 111%
viability at 10 µM [15]: 104%
viability at 10 µM [16]: 110%
viability at 10 µM [17]: 112%
viability at 10 µM [18]: 109%
viability at 10 µM [19]: 108%
viability at 10 µM [20]: 106%
viability at 10 µM [21]: 110%
viability at 10 µM [22]: 99.9%
viability at 10 µM [23]: 101%
viability at 10 µM [24]: 99%
viability at 10 µM [25]: 102%
viability at 10 µM [26]: 103%
viability at 10 µM [27]: 98.4%
viability at 10 µM [28]: 102%

COc1cc2c(c3c1OCCO3)C(=O)NC1C2CC(O)C(O)C1O (racemic)
viability at 10 µM [1]: 104%
viability at 10 µM [2]: 111%
viability at 10 µM [3]: 103%
viability at 10 µM [4]: 111%
viability at 10 µM [5]: 98.3%
viability at 10 µM [6]: 99.3%
viability at 10 µM [7]: 96.7%
viability at 10 µM [8]: 99.5%
viability at 10 µM [9]: 102%
viability at 10 µM [10]: 95%
viability at 10 µM [11]: 100%
viability at 10 µM [12]: 101%
viability at 10 µM [13]: 95.3%
viability at 10 µM [14]: 106%
viability at 10 µM [15]: 105%
viability at 10 µM [16]: 110%
viability at 10 µM [17]: 100%
viability at 10 µM [18]: 107%
viability at 10 µM [19]: 103%
viability at 10 µM [20]: 103%
viability at 10 µM [21]: 106%
viability at 10 µM [22]: 104%
viability at 10 µM [23]: 99.9%
viability at 10 µM [24]: 100%
viability at 10 µM [25]: 100%
viability at 10 µM [26]: 98.3%
viability at 10 µM [27]: 93.7%
viability at 10 µM [28]: 106%

CCCOc1cc2c(cc1OCC)C1CC(O)C(O)C(O)C1NC2=O (racemic)
viability at 10 µM [1]: 103%
viability at 10 µM [2]: 110%
viability at 10 µM [3]: 110%
viability at 10 µM [4]: 105%
viability at 10 µM [5]: 97.1%
viability at 10 µM [6]: 117%
viability at 10 µM [7]: 101%
viability at 10 µM [8]: 112%
viability at 10 µM [9]: 112%
viability at 10 µM [10]: 108%
viability at 10 µM [11]: 104%
viability at 10 µM [12]: 112%
viability at 10 µM [13]: 97.1%
viability at 10 µM [15]: 104%
viability at 10 µM [16]: 105%
viability at 10 µM [17]: 115%
viability at 10 µM [18]: 101%
viability at 10 µM [19]: 108%
viability at 10 µM [20]: 105%
viability at 10 µM [21]: 107%
viability at 10 µM [22]: 109%
viability at 10 µM [23]: 106%
viability at 10 µM [24]: 105%
viability at 10 µM [25]: 95.3%
viability at 10 µM [26]: 97.6%
viability at 10 µM [27]: 107%
viability at 10 µM [28]: 109%

COc1c2c(cc3c1C(=O)NC1C3CC(O)C(O)C1O)OCCO2 (racemic)
viability at 10 µM [1]: 105%
viability at 10 µM [2]: 103%
viability at 10 µM [3]: 107%
viability at 10 µM [4]: 113%
viability at 10 µM [5]: 99.5%
viability at 10 µM [6]: 96.7%
viability at 10 µM [7]: 95.4%
viability at 10 µM [8]: 93.1%
viability at 10 µM [9]: 102%
viability at 10 µM [10]: 99.1%
viability at 10 µM [11]: 99.9%
viability at 10 µM [12]: 104%
viability at 10 µM [13]: 97.7%
viability at 10 µM [14]: 106%
viability at 10 µM [15]: 99.6%
viability at 10 µM [16]: 108%
viability at 10 µM [17]: 104%
viability at 10 µM [18]: 104%
viability at 10 µM [19]: 106%
viability at 10 µM [20]: 105%
viability at 10 µM [21]: 109%
viability at 10 µM [22]: 98.6%
viability at 10 µM [23]: 106%
viability at 10 µM [24]: 102%
viability at 10 µM [25]: 99.3%
viability at 10 µM [26]: 97.9%
viability at 10 µM [27]: 96.5%
viability at 10 µM [28]: 102%

O=C1NC2C(CC(O)C(O)C2O)c2cc3c(cc21)OCCO3 (racemic)
viability at 10 µM [1]: 98.9%
viability at 10 µM [2]: 111%
viability at 10 µM [3]: 114%
viability at 10 µM [4]: 107%
viability at 10 µM [5]: 98.3%
viability at 10 µM [6]: 103%
viability at 10 µM [7]: 101%
viability at 10 µM [8]: 107%
viability at 10 µM [9]: 103%
viability at 10 µM [10]: 108%
viability at 10 µM [11]: 103%
viability at 10 µM [12]: 111%
viability at 10 µM [13]: 103%
viability at 10 µM [15]: 103%
viability at 10 µM [16]: 107%
viability at 10 µM [17]: 108%
viability at 10 µM [18]: 104%
viability at 10 µM [19]: 105%
viability at 10 µM [20]: 107%
viability at 10 µM [21]: 107%
viability at 10 µM [22]: 103%
viability at 10 µM [23]: 109%
viability at 10 µM [24]: 102%
viability at 10 µM [25]: 98.3%
viability at 10 µM [26]: 101%
viability at 10 µM [27]: 109%
viability at 10 µM [28]: 116%
